Measurements: US9156811B2 (priority 2008, dated 2015)
Like-named read-outs stand apart in the source and are kept apart here.

Key:
[1] = target: T. brucei N-myristoyl transferase (Trypanosoma brucei brucei (strain 927/4 GUTat10.1), UniProt Q388H8); experiment: biochemical; format: biochemical
[2] = tested on: Trypanosome (T. brucei brucei); experiment: In-vitro antitrypanosomal efficacy assay (cell growth, resazurin); format: cell-based
Experimental: To column 12, 200 μl media was added to provide a no cells control. Plates were then incubated at 37° C. in an atmosphere of 5% CO2 for 69 hours, before the addition of 20 μl of 500 μM rezasurin solution, and a further incubation period of 4 hours. […] Concentration effect curves were fitted using non-linear regression using XLFit 4.2 and EC50 values determined.

human NMT-1 = human NMT-1 (Homo sapiens (Human), UniProt P30419); experiment: NMT enzyme inhibition scintillation proximity assay, human NMT-1; format: biochemical
[3] = value with no enzyme tag in the cell, taken as T. brucei NMT, read-out: IC50 (μM) NMT Enzyme
[4] = T. brucei NMT, value without parentheses, read-out: IC50 (μM) NMT Enzyme (T. brucei NMT)
[5] = T. brucei brucei, blood stream form, variant 221
[6] = Human NMT-1, value in parentheses, read-out: IC50 (μM) NMT Enzyme (HuNMT-1)
[7] = value printed without enzyme tag in the NMT Enzyme column (taken as T. brucei NMT), read-out: IC50 (μM) NMT Enzyme

Sequence of T. brucei N-myristoyl transferase (Q388H8 1-446): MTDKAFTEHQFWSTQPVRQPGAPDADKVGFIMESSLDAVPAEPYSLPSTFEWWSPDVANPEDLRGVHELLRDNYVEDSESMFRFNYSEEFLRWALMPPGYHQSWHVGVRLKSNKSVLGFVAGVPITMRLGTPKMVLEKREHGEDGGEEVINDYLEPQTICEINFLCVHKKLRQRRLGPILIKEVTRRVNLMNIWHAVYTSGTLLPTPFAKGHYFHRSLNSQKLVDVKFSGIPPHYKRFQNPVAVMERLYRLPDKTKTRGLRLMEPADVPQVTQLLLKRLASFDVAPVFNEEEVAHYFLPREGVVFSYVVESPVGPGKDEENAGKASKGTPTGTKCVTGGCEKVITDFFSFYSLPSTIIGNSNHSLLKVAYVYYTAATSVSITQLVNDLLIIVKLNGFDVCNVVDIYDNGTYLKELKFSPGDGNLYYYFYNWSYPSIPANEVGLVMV
Sequence of human NMT-1 (P30419 whole entry): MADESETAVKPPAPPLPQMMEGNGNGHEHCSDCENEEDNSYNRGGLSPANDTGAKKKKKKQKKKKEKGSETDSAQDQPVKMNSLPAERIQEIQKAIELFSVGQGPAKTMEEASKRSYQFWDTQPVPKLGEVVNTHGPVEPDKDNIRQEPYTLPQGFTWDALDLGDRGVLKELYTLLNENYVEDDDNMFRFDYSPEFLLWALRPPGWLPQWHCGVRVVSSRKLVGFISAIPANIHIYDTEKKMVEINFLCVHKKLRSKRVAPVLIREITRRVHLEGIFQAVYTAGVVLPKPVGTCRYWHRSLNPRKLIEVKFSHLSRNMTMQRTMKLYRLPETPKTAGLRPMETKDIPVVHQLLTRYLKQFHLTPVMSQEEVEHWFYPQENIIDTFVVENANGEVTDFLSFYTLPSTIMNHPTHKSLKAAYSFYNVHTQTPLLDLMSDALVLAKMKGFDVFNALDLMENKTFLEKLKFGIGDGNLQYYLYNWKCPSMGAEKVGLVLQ

For `Cc1nn(C)c(C)c1N(C)[S+](=O)([O-])c1ccc(CCCCN(C)C)cc1` [DDD99745], the IC50 [1, 3] was 2.1 µM, the “ED50 (μM) T. brucei” value ([2]; T. brucei cell growth) was >1 µM and the IC50 (human NMT-1; HuNMT-1) was > 10 µM.
For `Cc1c(N[S+](=O)([O-])c2ccc(-c3cccc(CNC4CCCC4)c3)cc2)c(CC(C)C)nn1C` [DDD100146], the IC50 [1, 4] was 0.36 µM, the “ED50 (μM) T. brucei” value [2, 5] was >1 µM and the IC50 (human NMT-1; [6]) was 2.3 µM.
With `Cc1nn(C)c(C)c1N(C)[S+](=O)([O-])c1c(Cl)cc(-c2cccc(CNC3CCCCC3)c2)cc1Cl` [DDD88642] the IC50 [1, 3] was 0.39 µM, the “ED50 (μM) T. brucei” value ([2]; T. brucei cell growth) was 0.89 µM and the IC50 (human NMT-1; HuNMT-1) was 4.48 µM.
`Cc1c(N(C)[S+](=O)([O-])c2ccc(CCCN3CCN(C)CC3)cc2)c(CC(C)C)nn1C` [DDD90143] was tested, and the IC50 [1, 3] was 0.082 µM, the “ED50 (μM) T. brucei” value ([2]; T. brucei cell growth) was 0.81 µM and the IC50 (human NMT-1; HuNMT-1) was 1.37 µM.
For `CCN(C)Cc1cccc(-c2ccc([S+](=O)([O-])Nc3c(CC(C)C)nn(C)c3C)cc2)c1` [DDD99741], the IC50 [1, 3] was 0.005 µM, the “ED50 (μM) T. brucei” value ([2]; T. brucei cell growth) was 0.047 µM and the IC50 (human NMT-1; HuNMT-1) was 0.021 µM.
In the case of `Cc1c(N[S+](=O)([O-])c2ccc(-c3cccc(CN4CCC(N(C)C)C4)c3)cc2)c(CC(C)C)nn1C` (centres unmarked) [DDD99821], the IC50 [1, 3] was 0.16 µM, the “ED50 (μM) T. brucei” value ([2]; T. brucei cell growth) was 0.59 µM and the IC50 (human NMT-1; HuNMT-1) was 3.8 µM.
For `Cc1nn(C)c(C)c1N(CC(F)(F)F)[S+](=O)([O-])c1c(Cl)cc(CCCN2CCN(C)CC2)cc1Cl` [DDD100149], the IC50 [1, 4] was 0.014 µM, the “ED50 (μM) T. brucei” value [2, 5] was 0.132 µM and the IC50 (human NMT-1; [6]) was 2.4 µM.
For `Cc1nn(C)c(C)c1N[S+](=O)([O-])c1cccc(CCCN2CCN(C)CC2)c1` [DDD88640], the IC50 [1, 3] was > 1 µM, the “ED50 (μM) T. brucei” value ([2]; T. brucei cell growth) was 18.7 µM and the IC50 (human NMT-1; HuNMT-1) was > 1 µM.
With `Cc1c(N[S+](=O)([O-])c2ccc(-c3cccc(CNCc4ccccc4)c3)cc2)c(CC(C)C)nn1C` [DDD100150] the IC50 [1, 4] was 1.3 µM, the “ED50 (μM) T. brucei” value [2, 5] was >1 µM and the IC50 (human NMT-1; [6]) was 4 µM.
In the case of `Cc1nn(C)c(C)c1N(CC(F)F)[S+](=O)([O-])c1c(Cl)cc(CCCN2CCN(C)CC2)cc1Cl` [DDD100163], the IC50 [1, 4] was 0.014 µM, the “ED50 (μM) T. brucei” value [2, 5] was 0.125 µM and the IC50 (human NMT-1; [6]) was 1.7 µM.
`Cc1nn(C)c(C)c1N(CC(F)(F)F)[S+](=O)([O-])C1=C(Cl)C=C(CCCN2CCCNCC2)CC1Cl` (centres unmarked) [DDD100148] was tested, and the IC50 [1, 4] was 0.008 µM, the “ED50 (μM) T. brucei” value [2, 5] was 0.018 µM and the IC50 (human NMT-1; [6]) was 0.21 µM.
For `Cc1nn(C)c(C)c1N(C)[S+](=O)([O-])c1ccc(CCCN2CCN(C)CC2)cc1` [DDD90115], the IC50 [1, 3] was 0.26 µM, the “ED50 (μM) T. brucei” value ([2]; T. brucei cell growth) was 2.21 µM and the IC50 (human NMT-1; HuNMT-1) was 6.1 µM.
With `Cc1nn(C)c(C)c1N[S+](=O)([O-])c1ccc2nc(NC3CCNCC3)ccc2c1` [DDD88523] the IC50 [1, 3] was 0.61 µM, the “ED50 (μM) T. brucei” value ([2]; T. brucei cell growth) was >1 µM and the IC50 (human NMT-1; HuNMT-1) was 6.3 µM.
In the case of `Cc1nn(C)cc1N[S+](=O)([O-])c1c(Cl)cc(Br)cc1Cl` [DDD88324], the IC50 [1, 3] was 75.4 µM, the “ED50 (μM) T. brucei” value ([2]; T. brucei cell growth) was >10 µM and the IC50 (human NMT-1; HuNMT-1) was 3.36 µM.
`Cc1nn(C)c(C)c1N(C)[S+](=O)([O-])c1ccc(CCCCn2ccnc2)cc1` [DDD99746] was tested, and the IC50 [1, 3] was 2 µM, the “ED50 (μM) T. brucei” value ([2]; T. brucei cell growth) was >1 µM and the IC50 (human NMT-1; HuNMT-1) was > 10 µM.
`Cc1nn(C)cc1N[S+](=O)([O-])c1ccc(Br)cc1` [DDD88320] was tested, and the IC50 [1, 3] was 44.1 µM, the “ED50 (μM) T. brucei” value ([2]; T. brucei cell growth) was >10 µM and the IC50 (human NMT-1; HuNMT-1) was > 100 µM.
`Cc1nn(C)c(C)c1N(C)[S+](=O)([O-])c1ccc(CCCC2CCN(C(C)C)CC2)cc1` [DDD90153] was tested, and the IC50 [1, 3] was 0.31 µM, the “ED50 (μM) T. brucei” value ([2]; T. brucei cell growth) was >1 µM and the IC50 (human NMT-1; HuNMT-1) was > 1 µM.
For `Cn1cc(N[S+](=O)([O-])c2c(Cl)cc(Br)cc2Cl)cn1` [DDD88325], the IC50 [1, 3] was > 100 µM, the “ED50 (μM) T. brucei” value ([2]; T. brucei cell growth) was >10 µM and the IC50 (human NMT-1; HuNMT-1) was > 100 µM.
With `Cc1nn(C)c(C)c1N(C)[S+](=O)([O-])c1ccc(CCCC2CCN(Cc3ccccc3)CC2)cc1` [DDD90152] the IC50 [1, 3] was 0.5 µM, the “ED50 (μM) T. brucei” value ([2]; T. brucei cell growth) was >1 µM and the IC50 (human NMT-1; HuNMT-1) was > 1 µM.
`Cn1cc(N[S+](=O)([O-])c2ccc(Br)cc2)cn1` [DDD88321] was tested, and the IC50 [1, 3] was > 100 µM, the “ED50 (μM) T. brucei” value ([2]; T. brucei cell growth) was >10 µM and the IC50 (human NMT-1; HuNMT-1) was > 100 µM.
`Cc1nn(C)c(C)c1N(CC(F)F)[S+](=O)([O-])c1c(Cl)cc(Br)cc1Cl` [DDD100147] was tested, and the IC50 [1, 4] was 3.2 µM, the “ED50 (μM) T. brucei” value [2, 5] was >1 µM and the IC50 (human NMT-1; [6]) was > 10 µM.
For `Cc1c(N[S+](=O)([O-])c2ccc(-c3cccc(CNCCc4ccccc4)c3)cc2)c(CC(C)C)nn1C` [DDD100139], the IC50 [1, 4] was 1.4 µM, the “ED50 (μM) T. brucei” value [2, 5] was >1 µM and the IC50 (human NMT-1; [6]) was 2.3 µM.
For `CCCN(CCC)Cc1cccc(-c2cc(Cl)c([S+](=O)([O-])N(C)c3c(C)nn(C)c3C)c(Cl)c2)c1` [DDD88636], the IC50 [1, 3] was 0.92 µM, the “ED50 (μM) T. brucei” value ([2]; T. brucei cell growth) was 1.89 µM and the IC50 (human NMT-1; HuNMT-1) was 3.7 µM.
`Cc1nn(C)c(C)c1N(C)[S+](=O)([O-])c1ccc(CCCC2CCN(CC3CC3)CC2)cc1` [DDD90155] was tested, and the IC50 [1, 3] was > 1 µM, the “ED50 (μM) T. brucei” value ([2]; T. brucei cell growth) was 4.0 µM and the IC50 (human NMT-1; HuNMT-1) was > 1 µM.
For `Cc1nn(C)c(C)c1N(C)[S+](=O)([O-])c1ccc(CCCN(C)C)cc1` [DDD99749], the IC50 [1, 3] was 0.45 µM, the “ED50 (μM) T. brucei” value ([2]; T. brucei cell growth) was >1 µM and the IC50 (human NMT-1; HuNMT-1) was > 1 µM.
With `Cc1nn(C)c(C)c1N[S+](=O)([O-])c1c(Cl)cc(-c2cc3ccccc3o2)cc1Cl` [DDD73280] the IC50 [1, 7] was 20.7 µM and the “ED50 (μM) T. brucei” value ([2]; T. brucei cell growth) was >1 µM.
With `CCCn1nc(C)c(N[S+](=O)([O-])c2c(C)cc(OC)c(C)c2C)c1C` [DDD73491] the IC50 [1, 7] was 28.4 µM and the “ED50 (μM) T. brucei” value ([2]; T. brucei cell growth) was >1 µM.
`Cc1nn(C)c(C)c1N[S+](=O)([O-])c1ccc(-c2cccc(C=O)c2)cc1` [DDD86210] was tested, and the IC50 [1, 3] was 6 µM and the “ED50 (μM) T. brucei” value ([2]; T. brucei cell growth) was >1 µM.
For `Cc1nn(C)c(C)c1N[S+](=O)([O-])c1ccc(N2Cc3ccccc3CC2CO)nc1` (centres unmarked) [DDD73331], the IC50 [1, 7] was 6 µM and the “ED50 (μM) T. brucei” value ([2]; T. brucei cell growth) was >1 µM.
With `Cc1c(N[S+](=O)([O-])c2ccc(-c3cccc(CN(C)C)c3)c(C(F)(F)F)c2)c(CC(C)C)nn1C` [DDD99822] the IC50 [1, 3] was 0.006 µM and the “ED50 (μM) T. brucei” value ([2]; T. brucei cell growth) was 0.051 µM.
With `Cc1nn(C)c(C)c1N[S+](=O)([O-])c1ccc(-c2ccccc2)cc1` [DDD71297] the IC50 [1, 7] was 10.5 µM and the “ED50 (μM) T. brucei” value ([2]; T. brucei cell growth) was >1 µM.
For `Cc1nn(C)c(C)c1N[S+](=O)([O-])c1ccc2c(c1)C(C)C(=O)N2` (centres unmarked) [DDD71637], the IC50 [1, 7] was 11.7 µM and the “ED50 (μM) T. brucei” value ([2]; T. brucei cell growth) was >1 µM.
In the case of `COc1ccc([S+](=O)([O-])Nc2c(C)nn(C)c2C)cc1` [DDD71286], the IC50 [1, 7] was 9.8 µM and the “ED50 (μM) T. brucei” value ([2]; T. brucei cell growth) was >1 µM.
For `Cc1nn(C)c(C)c1N[S+](=O)([O-])c1ccc(COCCn2ccnc2)cc1` [DDD85628], the IC50 [1, 7] was 11.1 µM and the “ED50 (μM) T. brucei” value ([2]; T. brucei cell growth) was >1 µM.
`COc1cc(C)c([S+](=O)([O-])Nc2c(C)noc2C)c(C)c1C` [DDD71285] was tested, and the IC50 [1, 7] was 19.3 µM and the “ED50 (μM) T. brucei” value ([2]; T. brucei cell growth) was >1 µM.
In the case of `Cc1nn(C)c(C)c1N[S+](=O)([O-])c1ccc(CNCCN(C)C)cc1` [DDD85640], the IC50 [1, 3] was 3.3 µM and the “ED50 (μM) T. brucei” value ([2]; T. brucei cell growth) was >50 µM.
For `Cc1nn(C)c(C)c1N[S+](=O)([O-])c1c(Cl)cc(-c2cccc(C(F)(F)F)c2)cc1Cl` [DDD73277], the IC50 [1, 7] was 40 µM and the “ED50 (μM) T. brucei” value ([2]; T. brucei cell growth) was >1 µM.
In the case of `Cc1nn(C)c(C)c1N[S+](=O)([O-])c1ccc(COCc2ccc3ccccc3c2)cc1` [DDD73511], the IC50 [1, 7] was > 100 µM and the “ED50 (μM) T. brucei” value ([2]; T. brucei cell growth) was >1 µM.
With `CC(=O)Nc1ccc([S+](=O)([O-])Nc2c(C)nn(C)c2C)cc1` [DDD71287] the IC50 [1, 7] was 2.8 µM and the “ED50 (μM) T. brucei” value ([2]; T. brucei cell growth) was >1 µM.
`Cc1nn(C)c(C)c1N[S+](=O)([O-])c1ccc(COCCCN2CCN(C)CC2)cc1` [DDD85648] was tested, and the IC50 [1, 3] was 47.7 µM and the “ED50 (μM) T. brucei” value ([2]; T. brucei cell growth) was >1 µM.
`Cc1nn(C)c(C)c1N[S+](=O)([O-])c1ccc(COc2ccc(C(C)(C)c3ccccc3)cc2)cc1` [DDD73499] was tested, and the IC50 [1, 7] was > 100 µM and the “ED50 (μM) T. brucei” value ([2]; T. brucei cell growth) was >1 µM.
